This is an account of results in ChEMBL document CHEMBL5226347, “Discovery of Chromane-6-Sulfonamide Derivative as a Potent, Selective, and Orally Available Novel Retinoic Acid Receptor-Related Orphan Receptor γt Inverse Agonist” (J Med Chem, 2021).

Data set [1] can be described thus: Metabolic stability in human liver assessed as intrinsic clearance incubated for 5 to 30 mins by HPLC-MS/MS analysis. Format: ADME, tissue-based. Particulars: liver (preparation not stated), time 5-30 min, read-out: CLH.
A short description of data set [2]: Metabolic stability in human liver microsomes assessed as half life incubated for 5 to 30 mins by HPLC-MS/MS analysis. The format is ADME, Microsome. The conditions noted are these: time 5-30 min; for t1/2: microsomes.
Data set [3] can be described thus: Metabolic stability in human liver microsomes assessed as parent compound remaining measured at 60 mins by HPLC-MS/MS analysis. Format: ADME, Microsome. The conditions noted are these: 1 h. Background: Liver microsomes are a subcellular fraction often used to study metabolism.
Data set [4] is described as follows: Lipophilicity, log D of the compound at pH 7.4. The format is physicochemical. Particulars: buffer.
Data set [5] has as its target T1, Nuclear receptor ROR-gamma (Homo sapiens, UniProt P51449).
T1 sequence (P51449 whole entry): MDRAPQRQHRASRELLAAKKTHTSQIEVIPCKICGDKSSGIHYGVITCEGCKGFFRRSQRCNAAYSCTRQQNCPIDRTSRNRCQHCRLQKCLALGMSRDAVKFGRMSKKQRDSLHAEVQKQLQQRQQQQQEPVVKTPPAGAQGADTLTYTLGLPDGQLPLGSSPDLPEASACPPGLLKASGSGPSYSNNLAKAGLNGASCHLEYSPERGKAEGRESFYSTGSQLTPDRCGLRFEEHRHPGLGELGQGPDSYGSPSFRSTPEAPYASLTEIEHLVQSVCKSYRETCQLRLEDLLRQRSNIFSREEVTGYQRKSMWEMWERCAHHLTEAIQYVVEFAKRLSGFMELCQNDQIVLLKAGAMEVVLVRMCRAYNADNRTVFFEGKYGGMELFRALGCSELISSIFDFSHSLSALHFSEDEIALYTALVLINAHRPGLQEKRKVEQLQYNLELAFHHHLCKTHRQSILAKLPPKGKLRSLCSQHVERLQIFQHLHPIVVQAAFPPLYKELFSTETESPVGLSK
The data set is described as follows: Inhibition of RORgammat in human Jurkat cells assessed as inhibition of RORgammat transcriptional activity incubated for 10 mins by luciferase reporter gene assay. Format: cell-based. (In general: In a reporter assay the amount or activity of a reporter protein is the signal.)

The target of data set [6] is T1, Nuclear receptor ROR-gamma. The data set is described as follows: Displacement of BODIPY from APC-labelled human RORgammat LBD incubated for 15 mins by LANCE detection analysis. Background: TR-FRET usually uses a lanthanide donor and a delayed reading to cut background.
The test system of data set [7] is Mus musculus. The data set is described as follows: Antiinflammatory activity against imiquimod-induced Balb/c mouse skin inflammation model assessed as inhibition of IL-17A level at 20 mg/kg, po measured for 13 days. The format is functional. More on the design: scale not given: the % may be the effect or the level left. Particulars: time 13 day.
Data set [8] can be described thus: Solubility of compound in aqueous buffer at pH 7.4. The format is physicochemical.
Data set [9] has as its system Mus musculus. The data set is described as follows: Antiinflammatory activity against imiquimod-induced Balb/c mouse skin inflammation model assessed as inhibition of IL-6 level at 20 mg/kg, po measured for 13 days. The format is functional. More on the design: scale not given: the % may be the effect or the level left. The conditions noted are these: time 13 day.
Data set [10] has as its system Mus musculus. Kind of data set: Antiinflammatory activity against imiquimod-induced Balb/c mouse skin inflammation model assessed as reduction in severity index score at 20 mg/kg, po BID for 13 days. Format: functional. More on the design: scale not given: the % may be the effect or the level left. Particulars: time 13 day.

Converted amounts (≈) assume the structure as drawn.

What is called logD is the decadic logarithm of the distribution of all forms, ionised or not, between an organic phase and buffer at a given pH. `CC(C)CN(c1ccc(C#N)cc1)S(=O)(=O)c1ccc2c(c1)C(O)CC(C1CCOCC1)O2` (centres undefined): the CLint scaled in data set [1] was 1520 mL/min/kg. Further, in [2], the t1/2 worked out at 0.8 min. The Stability in [3] came out at 0.3%. Further, the logD in data set [4] came to 3.07. Regarding `CCc1ccc(N(CC(C)C)S(=O)(=O)c2ccc3c(c2)C(O)CC(C2CCN(S(C)(=O)=O)CC2)O3)cc1` (centres undefined), in data set [4], the logD is 3.22.

With `CCc1ccc(N(CC(C)C)S(=O)(=O)c2ccc3c(c2)C(OC2CCCCC2)CC(C2CCOCC2)O3)cc1` (centres undefined), the log distribution coefficient (logD) in data set [4] worked out at 6.28.

On to `CCc1ccc(N(CC2CCC2)S(=O)(=O)c2ccc3c(c2)C(O)CC(C2CCOCC2)O3)cc1` (centres undefined), for which, in [4], the logD is 4.01. On the same count and under the same terms, to `Cc1cc(C(O)(C(F)(F)F)C(F)(F)F)ccc1N(CC(C)C)S(=O)(=O)c1ccc2c(c1)C(O)CC(C1CCOCC1)O2` (centres undefined) belongs 4.37; to `CCc1ccc(N(Cc2ccccc2)S(=O)(=O)c2ccc3c(c2)C(O)CC(C2CCOCC2)O3)cc1` (centres undefined), 4.68.

As usually defined, the IC50 is the concentration that inhibits the measured activity by half. With `CCS(=O)(=O)c1ccc(CN(CC(C)C)S(=O)(=O)c2ccc3c(c2)C(O)CC(C2CCOCC2)O3)nc1` (centres undefined), the IC50 in [5] and in data set [6] was above 10 µM in each case. The compound also came in with a pH-dependent lipophilicity (logD) in data set [4] of 1.42.

Usually solubility stands for the dissolved amount per volume that the medium holds. Regarding `CCc1ccc(N(CC(C)C)S(=O)(=O)c2ccc(OCC3CCOCC3)c(CO)c2)cc1` [GSK2981278], the values for the Activity in the data set on Mus musculus [7], in the data set on Mus musculus [9] and with Mus musculus [10] were 82.2%, 59.4% and 61.5%, respectively. Also, the CLint scaled in [1] was 1610 mL/min/kg. The compound further returned a solubility in data set [8] of 2.12 µg/mL (≈ 4.59 µM). In [2], the t1/2 is 0.8 min. The Stability in [3] was 0.2%. In addition, the logD in [4] worked out at 4.1. In the case of `O=S(=O)(Nc1ccccc1C(F)(F)F)c1ccc2c(c1)C(O)CC(C1CCOCC1)O2` (centres undefined), the half-inhibitory concentration (IC50) in data set [5] and in data set [6] was above 10 µM throughout. The same compound had a logD in [4] of 2.41. The compound `CC(C)CN(c1ccccc1F)S(=O)(=O)c1ccc2c(c1)C(O)CC(C1CCOCC1)O2` (centres undefined) had a logD in [4] of 3.39.

In data set [4], `CC(C)CN(Cc1ccccc1C(F)(F)F)S(=O)(=O)c1ccc2c(c1)C(O)CC(C1CCOCC1)O2` (centres undefined) displayed a log distribution coefficient (logD) of 4.23. As to `CCc1ccc(N(CC(C)C)S(=O)(=O)c2ccc3c(c2)C(O)C[C@H](C2CCOCC2)O3)cc1` (some centres undefined), in [4], the logD was determined as 4.12.

In [4], `CC(C)CN(c1ccc(N(C)C)cc1)S(=O)(=O)c1ccc2c(c1)C(O)CC(C1CCOCC1)O2` (centres undefined) gave a logD of 3.51. Same read-out and setting: to `CCc1ccc(N(CC(C)C)S(=O)(=O)c2ccc3c(c2)C(N)CC(C2CCOCC2)O3)cc1` (centres undefined) belongs 3.08. With `CCc1ccc(N(CC(C)C)S(=O)(=O)c2ccc(OCC3CCOCC3)c(CN)c2)cc1`, in data set [4], the logD worked out at 3.25.

For `CCc1ccc(N(CC(C)C)S(=O)(=O)c2ccc3c(c2)CCC3OC2CCOCC2)cc1` (centres undefined), the logD in data set [4] is 4.96. Consider `CCc1ccc(N(CC(C)C)S(=O)(=O)c2ccc3c(c2)CCC(C2CCOCC2)O3)cc1` (centres undefined), for which the logD in data set [4] was found to be 5.38. Take `O=S(=O)(c1ccc2c(c1)C(O)CC(C1CCOCC1)O2)N1CCCC1c1ccccc1C(F)(F)F` (centres undefined): the CLint scaled in data set [1] was determined as 172 mL/min/kg. In addition, the t1/2 in data set [2] stood at 7.6 min. In addition, in data set [3], the Stability is given as 5.2%. The logD in data set [4] amounted to 3.41. In data set [4], `CCc1ccc2c(c1)CC(C)CN2S(=O)(=O)c1ccc2c(c1)C(O)CC(C1CCOCC1)O2` (centres undefined) gave a pH-dependent lipophilicity (logD) of 3.68. The same measure, in the same setting: to `CCc1ccc(N(CC(C)C)S(=O)(=O)c2ccc3c(c2)C(C)(O)CC(C2CCOCC2)O3)cc1` (centres undefined) belongs 4.19. Still for that read-out and setting: to `CC(C)CN(c1ccccc1C(F)(F)F)S(=O)(=O)c1ccc2c(c1)C(O)CC(C1CCOCC1)O2` (centres undefined) belongs 4.14. In data set [4], `CC(C)CN(c1ccc(F)cc1F)S(=O)(=O)c1ccc2c(c1)C(O)CC(C1CCOCC1)O2` (centres undefined) showed a logD of 3.53. On to `CCc1ccc(N(CC(C)C)S(=O)(=O)c2ccc3c(c2)C(O)CC(C(C)C2CCOCC2)O3)cc1` (centres undefined), for which the logD in data set [4] is 5.04. On the same count and under the same terms, in the case of `CC(C)CN(c1cccc(F)c1)S(=O)(=O)c1ccc2c(c1)C(O)CC(C1CCOCC1)O2` (centres undefined) it was 3.39; in that of `Cc1ccc(N(CC(C)C)S(=O)(=O)c2ccc3c(c2)C(O)CC(C2CCOCC2)O3)c(C)c1` (centres undefined), 4.19. In turn, `CCc1ccc(N(CC(C)C)S(=O)(=O)c2ccc3c(c2)C(O)CC(CC2CCOCC2)O3)cc1` (centres undefined) returned a log distribution coefficient (logD) in [4] of 4.44. Consider `CCc1ccc(N(CC(C)C)S(=O)(=O)c2ccc3c(c2)C(O)CC(C2CCNCC2)O3)cc1` (centres undefined), for which the logD in data set [4] was 1.04. The term half-life denotes how long it takes for the measured level to halve. With `CCc1ccc(N(CC(C)C)S(=O)(=O)c2ccc3c(c2)C(O)CC(C2CCOCC2)O3)cc1` (centres undefined), the CLint scaled in [1] is 330 mL/min/kg. Also, the half-life in [2] (liver microsomes) was 222 min. The compound further yielded a pH-dependent lipophilicity (logD) in data set [4] of 4.12. The compound `CCc1ccc(N(CC(C)C)S(=O)(=O)c2ccc3c(c2)C(O)CC(C2CCN(C(=O)C4CCCC4)CC2)O3)cc1` (centres undefined) displayed a logD in [4] of 5.04. Still for that read-out and setting: in the case of `CCc1ccc(N(CC(C)C)S(=O)(=O)c2ccc(OCC3CCOCC3)c3c2CCC3O)cc1` (centres undefined) it was 4.55; in that of `CCc1ccc(N(CC(C)C)S(=O)(=O)c2ccc3c(c2)C=CC(C2CCOCC2)O3)cc1` (centres undefined), 5.52; in that of `CCc1ccc(N(CC(C)C)S(=O)(=O)c2ccc3c(c2)C(O)C[C@@H](C2CCOCC2)O3)cc1` (some centres undefined), 4.12. Still for that read-out and setting: in the case of `CCc1ccc(N(CC(C)C)S(=O)(=O)c2ccc3c(c2)C(O)CC(C2CCN(C)CC2)O3)cc1` (centres undefined) it was 2.67. With `CCc1ccc(N(CC(C)C)S(=O)(=O)c2ccc(OCC3CCOCC3)c3c2CCCC3O)cc1` (centres undefined), the logD in data set [4] came out at 4.95. In the case of `CCc1ccc(N(CC(C)C)S(=O)(=O)c2ccc3c(c2)C(OC)CC(C2CCOCC2)O3)cc1` (centres undefined), the logD in data set [4] was found to be 4.69. Consider `CC(C)CN(C1CCc2ccc(F)cc21)S(=O)(=O)c1ccc2c(c1)C(O)CC(C1CCOCC1)O2` (centres undefined), for which the logD in data set [4] was determined as 3.94. The same measure, in the same setting: in the case of `CCc1ccc(N(C2COC2)S(=O)(=O)c2ccc3c(c2)C(O)CC(C2CCOCC2)O3)cc1` (centres undefined) it was 2.63; in that of `Cc1ccc(N(C2CCC2)S(=O)(=O)c2ccc3c(c2)C(O)CC(C2CCOCC2)O3)c(C)c1` (centres undefined), 3.77. For `CCc1ccc(NS(=O)(=O)c2ccc3c(c2)C(O)CC(C2CCOCC2)O3)cc1` (centres undefined), the logD in [4] worked out at 2.59. `O=S(=O)(c1ccc2c(c1)C(O)CC(C1CCOCC1)O2)N1CCC(c2ccccc2)CC1` (centres undefined): the IC50 in data set [5] and in data set [6] was above 10 µM throughout. For the same compound, the logD in [4] was found to be 2.63. For the compound `CC(C)CN(c1ccc(F)cc1)S(=O)(=O)c1ccc2c(c1)C(O)CC(C1CCOCC1)O2` (centres undefined), the logD in [4] turned out to be 3.39. As for `CCc1ccc(N(CC(C)C)S(=O)(=O)c2ccc3c(c2)C(C)CC(C2CCOCC2)O3)cc1` (centres undefined), the logD in data set [4] is 5.71.

In the case of `CC(C)CN(c1cc2ccccc2s1)S(=O)(=O)c1ccc2c(c1)C(O)CC(C1CCOCC1)O2` (centres undefined), the CLint scaled in data set [1] is 53.7 mL/min/kg. Further, the t1/2 in [2] was found to be 25.2 min. Also, in data set [3], the Stability is recorded as 28.5%. In addition, in data set [4], the logD was 3.92. For the compound `CCc1ccc(N(CC(C)C)S(=O)(=O)c2ccc3nc(C4CCOCC4)cc(O)c3c2)cc1`, the logD in data set [4] was 4.97. In the case of `CCc1ccc(N(CC(F)(F)F)S(=O)(=O)c2ccc3c(c2)C(O)CC(C2CCOCC2)O3)cc1` (centres undefined), the logD in data set [4] is 3.88.
